Reference: paper PMC9186362, “Design and biological evaluation of substituted 5,7-dihydro-6H-indolo[2,3-c]quinolin-6-one as novel selective Haspin inhibitors” (Journal of Enzyme Inhibition and Medicinal Chemistry, 2022)

Columns and labels:
[1] = tested on: U-2 OS cells; assay: Cell cycle analysis by flow cytometry; format: cell-based, human; conditions: 1 µM, 24 h
Method: After treatment with the compounds, cells were trypsinized and washed once in PBS. Cells were fixed for 1 h in ice-cold 70% ethanol, then washed once in PBS, centrifuged at 200 g and resuspended in a PBS buffer containing 100 µg/ml RNase A (Thermo Scientific) and 40 µg/ml propidium iodide (Life Technologies). DNA content was determined using a flow cytometer Attune^TM NxT (Thermofisher) and ten thousand events were collected in each run. The data were analysed using FCS Express 7 Pro software (De Novo).

[2] = design: method as in PMID 22305342; conditions: cited from earlier work

SMILES | % of cycling cells G2/M ([1]; DMSO control 6%) | % of cycling cells S ([1]; DMSO control 44%) | % of cycling cells G1 ([1]; DMSO control 50%) | Stability in basic media [2]
CCCNc1ccc2ncc(-c3ccc4[nH]ncc4c3)n2n1 [CHR-6494, reference compound] | 17% | 38% | 45% | 
O=c1oc2ccc(O)cc2c2c1[nH]c1ccccc12 [Compound 1a] |  |  |  | instability in basic media
O=c1oc2ccc(O)cc2c2c1[nH]c1cc(O)ccc12 [Compound 1b] |  |  |  | instability in basic media
